Results taken from patent publication US11091876B2, “Moisture resistant biodegradable composition” (AUTOM RIVER INC., priority 2015, dated 2021).

Legend:
mosquitoes = test: Mosquito mortality with insecticide-sprayed water-filled containers in a closed area; type: in vivo; conditions: containers double sprayed, after about 4 weeks
Method: The biodegradable containers also successfully functioned as a mosquito trap. For example, containers were double sprayed with lambda-cyalothrin, filled with water and placed in a closed area with a known number of mosquitoes. After about 4 weeks, mosquito mortality was measured by counting the number of live mosquitoes compared to the dead mosquitoes. 100% mosquito mortality was achieved.

plants = conditions: cited from earlier work

Compound | mosquito mortality (mosquitoes) [%] | incompatibility on cultivated plants (plants) | phytotoxicity to most plants (plants; when used as directed)
CC1(C)[C@H](C(=O)O[C@H](C#N)c2cccc(Oc3ccccc3)c2)[C@@H]1/C=C(\Cl)C(F)(F)F [lambda-cyalothrin] | 100 | – | –
CC1(C)C(C=C(Cl)Cl)C1C(=O)OCc1cccc(Oc2ccccc2)c1 (stereo not drawn) [permethrin] | – | No incompatibility has been observed | not phytotoxic
